Source: US9765115B2, “Inhibitors of metastasis, methods of generating such inhibitors and their therapeutic applications” (Board of Supervisors of Louisiana State University acting …, priority 2011, dated 2017)
Entries after “also recorded” stand apart in the source; their conditions may differ.

Legend:
Format in all cases: cell-based
[1] = tested on: ZO-1 and claudin 3; experiment: In vivo 32P phosphorylation and phosphoserine/phosphothreonine immunoblotting
Protocol: Postconfluent cells cultured were serum-starved overnight, and then labeled with [^32P]orthophosphate (NEN/DuPont Chemicals) in phosphate-free serum-free Dulbecco's modified Eagle's medium for 3 hours at 37° C. The cells were then treated with calcitonin (CT) (50 nM for 10 min, 37° C.). When used, myristoylated PKA-inhibitory peptide (mPKI; 100 nM) was added 15 min prior to the addition of CT (50 nM). The cells were then washed with ice-cold phosphate-buffered saline, and lysed in 700 μl lysate buffer. The lysate was cleared by centrifugation for 10 min at 10,000×g. For immunoprecipitation, the supernatant was incubated overnight with primary antibody, and Protein A-Sepharose (40 μl, GE Healthcare) was added next morning. Washed immune complexes were fractionated on SDS-PAGE. The gels were either dried and exposed to film or transferred onto polyvinylidene difluoride membranes and immunoblotted as described above.
The IPs were processed for immunoblotting with either anti-phosphoserine or anti-phosphothreonine antibodies followed by secondary antibody and developed with ECL To control for protein loading and transfer, the blots were stripped and reprobed with the immunoprecipitating antibody.
To directly examine the involvement of PKA in CTR action on TJ disassembly, the in vivo incorporation of ^32PO4 in TJ proteins was examined. […] Arrows indicate location of ZO-1 and claudin-3. FIG. 17B depicts the total amount of ^32P-radioactivity of IP bands of ZO-1 and claudin from cells treated with CT (CT) and without treatment (Control, C). […] The results of occludin were inconclusive (data not shown).
Next, the phosphorylated amino acids in these proteins were identified by probing ZO-1 and claudin 3 immunoprecipitates with antisera against phosphoserine, phosphothreonine and phosphotyrosine. […] The blots were probed by antibodies to phosphoserine (Ser), phosphothreonine (Thr), and phosphotyrosine (Tyr). […] There was complete absence of phosphotyrosines in either of these TJ proteins, consistent with the role of PKA in CTR-stimulated phosphorylation of ZO-1 and claudin 3.
As shown above, the interaction of CTR with ZO-1 occurs between CTR-C PDZ-binding motif and PDZ3 domain of ZO-1. […] To examine the role of CTR-C PDZ-binding motif on phosphorylation of TJ proteins, the serine/threonine phosphorylation of ZO-1 and claudin 3 was analyzed in PC-3CTRwt and PC-3CTRΔESS cells. […] The immunoprecipitates were then probed with antibodies to phosphoserine. […] The immunoprecipitates were then probed with antibodies to phosphothreonine. The IPs of ZO-1 and claudin 3 were immunoblotted and probed for phosphoserine and phosphothreonine.

[2] = tested on: PC-3CTRwt cells; experiment: Transepithelial electric resistance (TER)
Protocol: Cells were plated on Transwell filters (0.4 μm pore size) and grown to confluency in complete medium (RPMI1640 containing 10% fetal bovine serum, 20 mM HEPES and antibiotics). TER of the cultures (in duplicate wells) was measured at several time intervals with EVOM volt-ohm meter as previously described (Shah et al, 2009). The readings were corrected for blank (TER values from the filter in bathing medium). The integrity and cell density of monolayers were carefully monitored.
To examine the effect of calcitonin (CT) on tight junctions (TJs), the transepithelial electric resistance (TER) of polarized PC-3 cells expressing either the vector (PC-3V), CTRwt or CTRΔESS was monitored for 8 hours after CT stimulation (FIG. 2A). Polarized PC-3V, PC-3 CTRwt and PC-3 CTR-ΔESS cells were serum-starved for 4 hours, then treated with or without 50 nM CT. TER was measured with EVOM volt-ohm meter, and results expressed as Ωcm^2±SEM (n=6). […] Since PC-3 cells secrete CT, the expression of CTRwt may have activated CT-CTR axis causing almost 40% reduction of TER in PC-3CTRwt cells.
The effect of CT on TJ functionality was tested by monitoring TER of PC-3CTRwt monolayers. […] Polarized PC-3-CTRwt cells were serum-starved for 4 hours, then treated with or without 50 nM CT. TER was measured with EVOM volt-ohm meter. The results are expressed as TER ±SEM (Ωcm^2±SEM; n=6). […] PCP was determined by diffusion of ˜4 kDa TRITC-conjugated dextran from the upper to the lower chamber in one hour. The results are expressed as μg/ml/hour of TRITC-Dextran diffused ±SEM (n=6; *p<0.05 (−CT v +CT, One way ANOVA and Newman-Keul's test)).
To understand the significance of CT-induced, PKA-dependent disassembly of TJs in PC cell adhesion and invasion, the action of CT was examined on TER, PCP, cell adhesion and invasion in PC-3CTRwt cells in the presence/absence of mPKI. […] Similarly, mPKI abrogated the actions of CT on PCP and invasion (FIGS. 20B and 20C respectively). Next, the adhesion of PC-3CTRwt cells was examined on culture dishes.

[3] = tested on: PC-3V cells; experiment: Paracellular permeability (PCP), TRITC-dextran diffusion; conditions: 50 nM CT
Protocol: (§1) For PCP measurements, cells were grown to confluence on Transwell filters. Tetra methyl rhodamine-dextran (1 mg/ml, ˜4 kDa, Sigma) was added to the upper chamber. Fluorescence of the lower chamber medium was measured in Modulus Microplate Reader (Turner Biosystems) at various time intervals.
(§2) TJs form a barrier that regulates the movement of ions, solutes and growth factors between cells. To detect whether CT affects the barrier, the diffusion of fluorophore-conjugated dextran was measured across polarized PC cell line monolayers, a procedure called paracellular permeability (PCP). FIG. 2B depicts CTR-C PDZ-binding motif mutation and tight junction (TJ) disruption as measured using PCP. Polarized PC-3V, PC-3-CTRwt and PC-3CTRΔESS cells were treated with or without 50 nM CT, and PCP determined by diffusion of ˜4 kDa TRITC-conjugated dextran from the upper to the lower chamber in one hour. The results are expressed as μg/ml/hour of TRITC-Dextran diffused ±SEM (n=6; *p<0.05 (−CT v +CT, One way ANOVA and Newman-Keul's test)). […] In contrast, CTRΔESS expression had little effect on PCP in the presence or absence of CT.

[4] = tested on: PC-3CTRΔESS cells; experiment: as above
Protocol: as §1, §2

[5] = tested on: PC-3CTRwt cells; experiment: as above
Protocol: as §1
TJs form a barrier that regulates the movement of ions, solutes and growth factors between cells. To detect whether CT affects the barrier, the diffusion of fluorophore-conjugated dextran was measured across polarized PC cell line monolayers, a procedure called paracellular permeability (PCP). FIG. 2B depicts CTR-C PDZ-binding motif mutation and tight junction (TJ) disruption as measured using PCP. Polarized PC-3V, PC-3-CTRwt and PC-3CTRΔESS cells were treated with or without 50 nM CT, and PCP determined by diffusion of ˜4 kDa TRITC-conjugated dextran from the upper to the lower chamber in one hour. The results are expressed as μg/ml/hour of TRITC-Dextran diffused ±SEM (n=6; *p<0.05 (−CT v +CT, One way ANOVA and Newman-Keul's test)). […]
The effect of CT on TJ functionality was tested by monitoring TER of PC-3CTRwt monolayers. […] TER was measured with EVOM volt-ohm meter. The results are expressed as TER ±SEM (Ωcm^2±SEM; n=6). […] PCP was determined by diffusion of ˜4 kDa TRITC-conjugated dextran from the upper to the lower chamber in one hour. […]

calcitonin [CT]
32P incorporation in immunoprecipitated ZO-1 and claudin 3 ([1]; CT 50 nM): ten-fold increase
incorporation of 32PO4 in ZO-1 and claudin 3 (autoradiogram) ([1]; CT 50 nM, 10 min): remarkable increase
serine/threonine phosphorylation of ZO-1 and claudin 3 ([1]; CT 50 nM, PC-3CTRwt cells): stimulated phosphorylation of serines and threonines in ZO-1 and only threonines in claudin-3; also recorded: detectable increase
phosphorylation of ZO-1 and claudin 3 ([1]; CT, PC-3CTRΔESS cells): did not induce phosphorylation
TER ([2]; 50 nM CT): decreased TER even further; also recorded: relatively rapid decline in TER; also recorded: steady, remarkable decline
time at which decline in TER became apparent ([2]; 50 nM CT): ≤ 10 min
time to remarkable drop in TER ([2]; 50 nM CT): ≤ 30 min
TER at multiple CT concentrations ([2]; CT 10 and 100 nM): significant decrease
PCP [3]: did not alter it
PCP at multiple CT concentrations ([4]; all tested concentrations): did not alter PCP
PCP ([4]; presence or absence of 50 nM CT): little effect
PCP ([5]; 50 nM CT): increased PCP significantly; also recorded: eighty percent
PCP at multiple CT doses ([5]; CT doses of 10 nM or higher): induced an increase
